Patent US8652439B2, “Compositions of HSP60 peptides and viral antigens for vaccination and diagnosis” (priority 2005, dated 2014)

How the values were obtained:
[1] = system: BALB/c lymph node cells; test: Proliferative response of lymph node cells to overlapping GroEL peptides after immunization with E. coli bacteria or GroEL; format: cell-based, BALB/c mice; settings: mice immunized with E. coli bacteria or GroEL; peptides 20 μg/ml
[2] = system: lymph node cells; test: Proliferative response of lymph node cells after immunization with the Ec27 peptide; format: in vivo, mice
[3] = system: IFN-γ; test: IFN-γ secretion of splenocytes from mice immunized with p15 conjugates, stimulated in vitro with p15; format: in vivo; settings: spleens 10 days after immunization; p15 25 μg/ml, 3 days
Procedure: (§1) Mice were immunized with the following peptides as described in Example 8 using the following peptides: p15 (SEQ ID NO:11), p32 (SEQ ID NO:13), Ec27-p15 ([…], SEQ ID NO:77), and Mock-p15 ([…], SEQ ID NO:80—the p431 peptide fused to p15).
(§2) Spleens were harvested 10 days after the immunization and splenocytes were cultured with p15 (25 μg/ml) for 3 days. Cell proliferation and IFNγ levels in the supernatants of spleen cell cultures were measured. Results are the average of 3 independent proliferation experiments. Ec27-Ep15* and Ec27-Ep15** are two identical but independent groups in the same experiment.

[4] = system: splenocytes; test: Proliferation of splenocytes from mice immunized with p15 conjugates, stimulated in vitro with p15; format: in vivo; settings: spleens 10 days after immunization; p15 25 μg/ml, 3 days
Procedure: as §1, §2

[5] = system: IFNγ; test: IFNγ secretion of splenocytes from p32-vaccinated mice; format: in vivo; settings: in vitro stimulation with WNV antigen
[6] = system: WNV; test: Virus levels in brain after p32 immunization and WNV challenge (RT-PCR and plaque assay); format: in vivo, mice; settings: day 7 after challenge with 10^6 pfu WNV; immunized 3 times
[7] = system: WNV; test: Protective efficacy of immunization against WNV challenge (mortality); format: in vivo, BALB/c mice
[8] = system: WNV-Ag; test: ELISA of anti-WNV Abs in sera of immunized mice; format: in vivo; settings: 7 days after 3rd immunization; sera 1:40
Procedure: FIG. 11. Anti-WNV Abs in the sera of mice immunized with different peptides or with WNV Ag. (A) Mice were immunized 3 times with the different peptides or WNV-Ag at 7 day intervals. Seven days after the 3rd immunization mice were bled and sera were tested as follows. Wells were coated with WNV-Ag (1:700 dilution). After blocking and washing, the different sera were added at 1:40 dilution and binding was detected as described in methods (ELISA). Results are the average of 4 independent ELISA experiments. Bars, ±SD. (B) Isotypes of Anti-WNV antibodies.
ELISA tests were performed according to the method described by Martin et al (Martin et al, 2000) with slight modifications. Briefly, microtiter plates were coated and incubated overnight at 4° C. with 100 μl of the different peptides (1 μg/well) or WNV antigen diluted 1:700 in coating buffer (NaHCO3, pH=9.6). After incubation, the coating buffer was decanted and the plates were washed twice in PBS containing 0.05% Tween 20 and 0.2% sodium azide (washing buffer). After blocking for 1 h with a 200 μl/wen of PBS containing 0.05% Tween 20 and 2.5% nonfat dry milk, the plates were washed 4 times in washing buffer and 100 μl of IVIG-IL or mouse sera at 1:40 dilution were added to each well (2-4 wells per sample). […] The color intensity was measured by ELISA-reader (Dynatec MR 5000) at the absorbance of 405 nm. […]

[9] = system: WNV-Ag; test: Isotypes of anti-WNV antibodies (ELISA); format: in vivo, mice
Procedure: Plates were coated with the WNV-Ag diluted 1:700 in coating buffer. After overnight incubation at 4° C., blocking and washing, various dilutions of mouse sera were added in triplicates. Negative and positive controls of mouse sera were tested in each plate. Total IgG assessment was performed using HRP-Streptavidin-conjugated anti-mouse IgG (SouthernBiotech). For antibody isotype identification, incubation with biotin-conjugated anti-mouse IgG1, IgG2a, IgG2b, IgG3, IgA and IgM antibodies (PharMingen, San Diego, Calif.) was followed by incubation with 1:1000 diluted HRP-Streptavidin (Jackson Laboratories, West Grove, Pa.). After substrate addition the color intensity was measured by ELISA-reader at 405 nm.
Next, it was examined whether p32 immunization and sublethal infection with WNV induce similar isotypes of anti-WNV antibodies. WNV-Ag was used as the antigen in the ELISA plates.

[10] = system: splenocytes; test: Proliferation of splenocytes from p32-immunized mice after in vitro stimulation; format: in vivo; settings: in vitro stimulation with WNV antigen
[11] = system: splenocytes from WNV-infected mice; test: Proliferation of splenocytes from WNV-infected mice after in vitro stimulation with peptides; format: cell-based; settings: in vitro stimulation with peptide
[12] = 3 immunizations, 10^6 pfu WNV, 21 days post challenge, 5 experiments
[13] = sera of p32-immunized versus WNV-infected mice

Sequence	Proliferative response of draining LNC to GroEL peptide [1]	Proliferative response of lymph node cells of Ec27-immunized BALB/c mice ([2]; 20 μg Ec27 in IFA s.c., 10 days later)	Proliferative response of mouse strains with different MHC haplotypes ([2]; BALB/c, BALB/k, BALB/b, SJL)	IFN-γ secretion of spleen cells in the presence of p15 [3]	Proliferation of spleen cells in the presence of p15 [4]	IFNγ secretion of splenocytes from immunized mice [5]	Virus levels in the brain [6]	Mortality (% deaths) [7, 12]	Mortality (dead of total) [7, 12]	Protective efficacy against WNV challenge ([7]; summary of 5 experiments)	WNV-specific Abs in sera [8]	WNV-specific IgA and IgG3 ([9]; sera of p32-immunized and WNV-infected mice)	Anti-WNV IgG1 and IgG2a levels [9, 13]	WNV-specific IgG2b levels [9, 13]	WNV-specific IgM levels [9, 13]	Proliferation of splenocytes from immunized mice [10]	Proliferation of T cells from WNV-infected mice [11]
KKARVEDALHATRAAVEEGV [Ec27]	highly immunogenic	responded the Ec27 peptide and to the whole GroEL molecule, but not to the control peptide AcR 259-271	all four different mouse strains responded specifically	did not induce significant proliferation and IFN-γ secretion	did not induce significant proliferation												
NEDQKIGIEIIKRALKILVTVNPFVSVATANS [p32]						secretion of high levels of IFNγ	no virus was detected	(10%)	2/21	a high degree of protection	high titer of WNV-specific Abs as compared to immunization with p15 alone	Neither IgA nor IgG3 specific for WNV were detected	similarly high	higher in sera from WNV-infected mice	higher in p32-immunized mice	proliferated in response to in vitro stimulation with WNV antigen	proliferated in response to in vitro stimulation
